Patent US20230310388A1, “Methods and Compositions for Treating Fungal Infections” (Neoculi Pty Ltd, priority 2020, published 2023)
In brackets after ≈: the same amount, converted by molar mass. Several values for one entry are separate records, joined by “and”; a condition that tells them apart may be missing. Identical values can stand only once.

test system: Candida albicans ATCC14053; test: Broth micro-dilution screen at 16 μg/mL and MIC (Example 9); format: cell-based; conditions: C. albicans ATCC14053; test range 0.25-64 μg/mL; duplicate
Method: The antifungal activity of 201 NCL analogs against Candida albicans ATCC14053 in vitro was investigated. A broth micro-dilution method was used, according to CLSI guidelines as described. NCL analogs were dissolved in DMSO and originally screened at a single concentration of 16 μg/mL.

| MIC | Structure (SMILES) |
| --- | --- |
| 1 µg/mL and 2 µg/mL | Cl.N=C(NN=Cc1ccc(OC(F)(F)F)cc1)NN=Cc1ccc(OC(F)(F)F)cc1 [NCL160] |
| >64 µg/mL | Cl.N=C(NN=Cc1ccc(Cl)cc1F)NN=Cc1ccc(Cl)cc1F [NCL216] |
| 4 µg/mL | C/C(=N\NC(=N)N/N=C(\C)c1ccc(C)cc1)c1ccc(C)cc1.Cl [NCL217] |
| >64 µg/mL | NC(=NN=Cc1ccc(Cl)cc1)N(N=Cc1ccc(Cl)cc1)C(=O)NCc1ccccc1 [NCL227] |
| 16 µg/mL and 32 µg/mL | Nc1nc(NN=Cc2ccc(O)c(O)c2)cc(NN=Cc2ccc(O)c(O)c2)n1 [NCL243] |
| >64 µg/mL | Nc1nc(NN=Cc2cccc(O)c2O)cc(NN=Cc2cccc(O)c2O)n1.O=Cc1cccc(O)c1O [NCL244] |
| 8 µg/mL | CCCCCC(=NNC(=N)N)c1ccc(Cl)cc1.Cl [NCL254] |
| 4 µg/mL (≈ 13.7 µM) | N=C(N)NN=C(CCC1CCCC1)c1ccc(Cl)cc1 [NCL266] |
| 4 µg/mL (≈ 10.8 µM) | CC(=NNC(=N)NN=C(C)c1c[nH]c2ccccc12)c1c[nH]c2ccccc12 [NCL268] |
| 1 µg/mL (≈ 2.11 µM) | CCCCCC(=NNC(=N)NN=C(CCCCC)c1ccc(Cl)cc1)c1ccc(Cl)cc1 [NCL271] |

same assay, conditions: single concentration 16 μg/mL; Growth or No growth of C. albicans ATCC14053

| Structure (SMILES) | Screen at 16 μg/mL |
| --- | --- |
| CCCCC(=NNC(=N)NN=C(CCCC)c1ccc(Cl)cc1)c1ccc(Cl)cc1.Cl [NCL154] | Growth |
| CC(=NNC(=N)NN=C(C)c1ccc(Br)cc1)c1ccc(Br)cc1.Cl [NCL155] | Growth |
| CCCC(=NNC(=N)NN=C(CCC)c1ccc(Cl)cc1)c1ccc(Cl)cc1.Cl [NCL156] | Growth |
| Cl.N=C(NN=Cc1ccc(OC(F)(F)F)cc1)NN=Cc1ccc(OC(F)(F)F)cc1 [NCL160] | No growth |
| CCO/C(N)=N/N=C(\C)c1ccc(Cl)cc1 [NCL162] | Growth |
| Cl.N=C(NN=C1C(=O)Nc2ccccc21)NN=C1C(=O)Nc2ccccc21 [NCL163] | Growth |
| Cl.N=C(NN=Cc1ccc(SC(F)(F)F)cc1)NN=Cc1ccc(SC(F)(F)F)cc1 [NCL166] | Growth |
| Cl.N=C(NN=C(C(=O)O)c1ccccc1)NN=C(C(=O)O)c1ccccc1 [NCL167] | Growth |
| CC(=O)Nc1cc(Cl)ccc1C=NNC(=N)NN=Cc1ccc(Cl)cc1NC(C)=O [NCL170] | Growth |
| CC(=NNC(=N)NN=C(C)c1ccccn1)c1ccccn1.Cl [NCL172] | Growth |
| Cl.N=C(NN=Cc1cnccc1Cl)NN=Cc1cnccc1Cl [NCL175] | Growth |
| Cl.N=C(NN=C(CO)c1ccc(Cl)cc1)NN=C(CO)c1ccc(Cl)cc1 [NCL177] | Growth |
| CC(=NNc1cc(NN=C(C)c2ccc(Cl)cc2)ncn1)c1ccc(Cl)cc1 [NCL178] | Growth |
| Nc1nc(NN=Cc2ccc(Cl)cc2)cc(NN=Cc2ccc(Cl)cc2)n1 [NCL179] | Growth |
| CC(Nc1cc(NC(C)c2ccccc2)nc(N)n1)c1ccccc1 (stereo not drawn) [NCL184] | Growth |
| CC(=NNc1cc(NN=C(C)c2ccc(Cl)cc2)ncn1)c1ccc(Cl)cc1.Cl [NCL185] | Growth |
| Cl.Clc1ccc(/C=N/Nc2cc(N/N=C/c3ccc(Cl)cc3)ncn2)cc1 [NCL187] | Growth |
| CCCCC(=NNC(=N)N)c1ccc(Cl)cc1.Cl [NCL188] | Growth |
| Cl.OCC(=NNc1cc(NN=C(CO)c2ccc(Cl)cc2)ncn1)c1ccc(Cl)cc1 [NCL189] | Growth |
| Cl.N=C(N)NN=C(CNN)c1ccc(Cl)cc1 [NCL190] | Growth |
| Cl.N=C(N)N/N=C(\C(=O)O)c1ccccc1 [NCL192] | Growth |
| Nc1nc(NN=Cc2ccc(Br)cc2)cc(NN=Cc2ccc(Br)cc2)n1 [NCL193] | Growth |

| Structure (SMILES) | Screen at 16 μg/mL |
| --- | --- |
| Nc1nc(NN=Cc2ccc(O)cc2)cc(NN=Cc2ccc(O)cc2)n1 [NCL196] | Growth |
| Nc1nc(NN=Cc2cccc(O)c2)cc(NN=Cc2cccc(O)c2)n1 [NCL197] | Growth |
| CC(C)(C)c1ccc(C=NNc2cc(NN=Cc3ccc(C(C)(C)C)cc3)nc(N)n2)cc1.Cl.Cl [NCL198] | Growth |
| Nc1nc(NN=Cc2ccccc2)cc(NN=Cc2ccccc2)n1 [NCL199] | Growth |
| CN(C)c1ccc(C=NNc2cc(NN=Cc3ccc(N(C)C)cc3)nc(N)n2)cc1 [NCL201] | Growth |
| Nc1nc(NN=Cc2ccccc2O)cc(NN=Cc2ccccc2O)n1 [NCL202] | Growth |
| Cl.Cl.Nc1nc(NN=CC2CCCCC2)cc(NN=CC2CCCCC2)n1 [NCL203] | Growth |
| CC(=NNc1cc(NN=C(C)c2ccc(Cl)cc2)nc(N)n1)c1ccc(Cl)cc1 [NCL204] | Growth |
| Nc1nc(NN=Cc2ccccc2Cl)cc(NN=Cc2ccccc2Cl)n1 [NCL205] | Growth |
| Cc1ccc(C=NNc2nc(N)nc(NN=Cc3ccc(C)cc3)n2)cc1 [NCL206] | Growth |
| Nc1nc(NN=Cc2ccccc2O)nc(NN=Cc2ccccc2O)n1 [NCL207] | Growth |
| CC(=NNc1nc(N)nc(NN=C(C)c2ccc(Cl)cc2)n1)c1ccc(Cl)cc1 [NCL208] | Growth |
| Nc1nc(NN=Cc2ccc(O)cc2)nc(NN=Cc2ccc(O)cc2)n1 [NCL211] | Growth |
| Nc1nc(NN=Cc2ccc(Br)cc2)nc(NN=Cc2ccc(Br)cc2)n1 [NCL212] | Growth |
| Nc1nc(NN=CC2CCCCC2)nc(NN=CC2CCCCC2)n1 [NCL213] | Growth |
| Nc1nc(NN=Cc2ccccc2)nc(NN=Cc2ccccc2)n1 [NCL214] | Growth |
| CC(=NNC(=N)NN=C(C)c1ccc(Cl)cc1F)c1ccc(Cl)cc1F.Cl [NCL215] | Growth |
| Cl.N=C(NN=Cc1ccc(Cl)cc1F)NN=Cc1ccc(Cl)cc1F [NCL216] | Growth |
| C/C(=N\NC(=N)N/N=C(\C)c1ccc(C)cc1)c1ccc(C)cc1.Cl [NCL217] | No growth |
| Nc1nc(NN=Cc2ccc(C(F)(F)F)cc2)cc(NN=Cc2ccc(C(F)(F)F)cc2)n1 [NCL221] | Growth |
| Nc1nc(N/N=C/c2ccc(F)c(F)c2)cc(N/N=C/c2ccc(F)c(F)c2)n1 [NCL222] | Growth |
| CC(=O)Nc1ccc(C=NNc2cc(NN=Cc3ccc(NC(C)=O)cc3)nc(N)n2)cc1 [NCL223] | Growth |

| Structure (SMILES) | Screen at 16 μg/mL |
| --- | --- |
| CCOC(=O)N(/N=C/c1ccc(Cl)cc1)C(=N)N/N=C/c1ccc(Cl)cc1 [NCL224] | Growth |
| CC(C)COC(=O)N(N=Cc1ccc(Cl)cc1)C(N)=NN=Cc1ccc(Cl)cc1 [NCL225] | Growth |
| NC(=NN=Cc1ccc(Cl)cc1)N(N=Cc1ccc(Cl)cc1)C(=O)NCc1ccccc1 [NCL227] | Growth |
| NC(=NN=Cc1ccc(Cl)cc1)N(N=Cc1ccc(Cl)cc1)C(=O)NCc1ccco1 [NCL229] | Growth |
| COc1ccc(C=NNc2cc(NN=Cc3ccc(OC)cc3)nc(N)n2)cc1 [NCL230] | Growth |
| CC(=NNC(=N)N)c1ccc(C(C)(C)C)cc1 [NCL231] | Growth |
| CC(C)(C)c1ccc(C=NNC(=N)N)cc1 [NCL232] | Growth |
| CCCC(=NNC(=N)N)c1ccc(Cl)cc1.Cl [NCL233] | Growth |
| CCC(=NNC(=N)N)c1ccc(Cl)cc1 [NCL234] | Growth |
| N=C(N)NN=Cc1ccc(Cl)cc1F [NCL235] | Growth |
| CC(=NNC(=N)N)c1ccc(Cl)cc1F [NCL236] | Growth |
| N=C(N)NN=C(CC1CCCCC1)c1ccc(Cl)cc1O [NCL237] | Growth |
| Nc1nc(NN=Cc2ccc(Cl)nc2)cc(NN=Cc2ccc(Cl)nc2)n1 [NCL238] | Growth |
| Nc1nc(NN=Cc2cccnc2)cc(NN=Cc2cccnc2)n1 [NCL239] | Growth |
| Nc1nc(NN=Cc2ccncc2)cc(NN=Cc2ccncc2)n1 [NCL241] | Growth |
| Nc1nc(NN=Cc2ccc(O)c(O)c2)cc(NN=Cc2ccc(O)c(O)c2)n1 [NCL243] | No growth |
| Nc1nc(NN=Cc2cccc(O)c2O)cc(NN=Cc2cccc(O)c2O)n1.O=Cc1cccc(O)c1O [NCL244] | Growth |
| Nc1nc(NN=Cc2cccc3ccccc23)cc(NN=Cc2cccc3ccccc23)n1 [NCL245] | Growth |
| Nc1nc(NN=CC=Cc2ccccc2)cc(NN=CC=Cc2ccccc2)n1 [NCL246] | Growth |
| N=C(N)NN=Cc1cccc2ccccc12 [NCL248] | Growth |
| N=C(N)NN=CC=Cc1ccccc1 [NCL249] | Growth |
| Clc1ccc(C=NCCCN=Cc2ccc(Cl)cc2)cc1 [NCL252] | Growth |

| Structure (SMILES) | Screen at 16 μg/mL |
| --- | --- |
| CN(C)c1ccc(/C=N/NC(=N)N)cc1 [NCL253] | Growth |
| CCCCCC(=NNC(=N)N)c1ccc(Cl)cc1.Cl [NCL254] | No growth |
| Nc1nc(NN=Cc2ccc(-c3ccccc3)cc2)cc(NN=Cc2ccc(-c3ccccc3)cc2)n1 [NCL255] | Growth |
| Nc1nc(NN=Cc2ccc(O)cc2O)cc(NN=Cc2ccc(O)cc2O)n1 [NCL256] | Growth |
| Clc1ccc(CNCCCCNCc2ccc(Cl)cc2)cc1 [NCL258] | Growth |
| Cl.N=C(N)NN=Cc1ccc2ccccc2c1 [NCL261] | Growth |
| Nc1nc(NN=CCCc2ccccc2)cc(NN=CCCc2ccccc2)n1 [NCL262] | Growth |
| Nc1nc(NN=Cc2ccc3ccccc3c2)cc(NN=Cc2ccc3ccccc3c2)n1 [NCL264] | Growth |
| N=C(N)NN=C(CCC1CCCC1)c1ccc(Cl)cc1 [NCL266] | No growth |
| CC(=NNC(=N)NN=C(C)c1c[nH]c2ccccc12)c1c[nH]c2ccccc12 [NCL268] | No growth |
| CCCCCC(=NNC(=N)NN=C(CCCCC)c1ccc(Cl)cc1)c1ccc(Cl)cc1 [NCL271] | No growth |
| CCCCCCCC(=NNC(=N)NN=C(CCCCCCC)c1ccc(Cl)cc1)c1ccc(Cl)cc1 [NCL272] | Growth |
| CCOCC(=NNC(=N)NN=C(COCC)c1ccc(Cl)cc1)c1ccc(Cl)cc1 [NCL275] | Growth |
| Cl.N=C(NN=Cc1cccc2nsnc12)NN=Cc1cccc2nsnc12 [NCL276] | Growth |
| Cl.N=C(NN=Cc1ccc2nsnc2c1)NN=Cc1ccc2nsnc2c1 [NCL277] | Growth |
| Cl.N=C(N)NN=Cc1cnc2ccccc2n1 [NCL278] | Growth |
| Cl.N=C(N)NN=Cc1nc2ccccc2s1 [NCL279] | Growth |
| Cl.N=C(N)NN=Cc1ccc2nsnc2c1 [NCL280] | Growth |
| Cl.N=C(N)N/N=C/c1cccc2nsnc12 [NCL281] | Growth |
| Cl.N=C(NN=Cc1ccc2ncccc2c1)NN=Cc1ccc2ncccc2c1 [NCL282] | No growth |
